Assay results published in the supplement of paper PMC10307832.

Columns and labels:
Test in all cases: relative viability (nuclei count vs DMSO), 5 days (fraction); higher = more cells survive
4EGI-1 + Olaparib = compound: O=C(O)C(Cc1ccccc1[N+](=O)[O-])=NNc1nc(-c2ccc(Cl)c(Cl)c2)cs1 (mixture of isomers) [4EGI-1] + O=C(c1cc(Cc2n[nH]c(=O)c3ccccc23)ccc1F)N1CCN(C(=O)C2CC2)CC1 [Olaparib] (partner 8 µM)
Outline: (§1)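 Lung cancer cell lines in 1536-well plates were dosed by pin tool the day after seeding, either with one drug alone or with a fixed anchor-drug dose plus five library-drug doses (not always all listed) in √10 steps. After 5 days, cells were fixed and their nuclei stained in one step (final 0.05% Triton X-100, 1% formaldehyde, 1 ug/ml Hoechst), then counted on 4× images. Relative viability is the nuclei count in treated wells divided by that in vehicle wells. Values are medians of duplicate plates.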

XMD8-85 + Lapatinib = compound: CN1CCN(CC1)C2=CC(=C(C=C2)NC3=NC=C4C(=N3)N(C5=CC=CC=C5C(=O)N4C)C)OC [XMD8-85] + CS(=O)(=O)CCNCc1ccc(-c2ccc3ncnc(Nc4ccc(OCc5cccc(F)c5)c(Cl)c4)c3c2)o1 [Lapatinib] (partner 2 µM)
Outline: as §1

4EGI-1 + Tozasertib = compound: O=C(O)C(Cc1ccccc1[N+](=O)[O-])=NNc1nc(-c2ccc(Cl)c(Cl)c2)cs1 (mixture of isomers) [4EGI-1] + Cc1cc(Nc2cc(N3CCN(C)CC3)nc(Sc3ccc(NC(=O)C4CC4)cc3)n2)n[nH]1 [Tozasertib] (partner 0.1 µM)
Outline: as §1

4EGI-1 + Alpelisib = compound: O=C(O)C(Cc1ccccc1[N+](=O)[O-])=NNc1nc(-c2ccc(Cl)c(Cl)c2)cs1 (mixture of isomers) [4EGI-1] + Cc1nc(NC(=O)N2CCC[C@H]2C(N)=O)sc1-c1ccnc(C(C)(C)C(F)(F)F)c1 [Alpelisib] (partner 2 µM)
Outline: as §1

Cell Line	relative viability (4EGI-1 + Olaparib; first compound 0.5 µM)	relative viability (4EGI-1 + Olaparib; first compound 1.581 µM)	relative viability (4EGI-1 + Olaparib; first compound 5 µM)	relative viability (4EGI-1 + Olaparib; first compound 15.81 µM)	relative viability (4EGI-1 + Olaparib; first compound 50 µM)	relative viability (XMD8-85 + Lapatinib; first compound 0.08 µM)	relative viability (XMD8-85 + Lapatinib; first compound 0.253 µM)	relative viability (XMD8-85 + Lapatinib; first compound 0.8 µM)	relative viability (XMD8-85 + Lapatinib; first compound 2.53 µM)	relative viability (XMD8-85 + Lapatinib; first compound 8 µM)	relative viability (4EGI-1 + Tozasertib; first compound 0.5 µM)	relative viability (4EGI-1 + Tozasertib; first compound 5 µM)	relative viability (4EGI-1 + Tozasertib; first compound 15.81 µM)	relative viability (4EGI-1 + Tozasertib; first compound 50 µM)	relative viability (4EGI-1 + Alpelisib; first compound 0.5 µM)	relative viability (4EGI-1 + Alpelisib; first compound 1.581 µM)	relative viability (4EGI-1 + Alpelisib; first compound 5 µM)	relative viability (4EGI-1 + Alpelisib; first compound 15.81 µM)	relative viability (4EGI-1 + Alpelisib; first compound 50 µM)	relative viability (4EGI-1 + Tozasertib; first compound 1.581 µM)
HCC-44	0.959	0.829	0.953	0.934	0.752	0.942	0.884	1.1	1.06	0.959	0.971	0.946	0.384	0.282	0.86	0.485	0.79	0.532	0.182	–
HCC-366	0.342	0.203	0.395	0.257	0.0601	0.94	1.12	1.09	0.994	1.06	0.131	0.0608	0.0943	0.0321	0.642	0.364	0.399	0.5	0.331	0.0938
PC-14	0.295	–	0.239	0.1	0.0599	0.32	0.398	0.276	0.38	0.268	0.584	0.57	–	0.28	1.05	–	0.906	–	0.941	–
NCI-H647	0.515	0.42	0.469	0.129	0.0662	1.08	1.09	1.24	1.48	0.638	0.262	0.35	0.199	0.133	1.16	1.17	1.41	0.647	0.108	–
201T	0.859	0.753	0.869	0.777	0.675	1.07	1.01	1.02	1	0.828	1.01	0.905	0.771	0.475	1.03	0.997	1.09	1.03	0.97	0.91
PC-3 [JPC-3]	1.16	–	1.17	0.526	0.484	0.405	0.466	0.477	0.492	0.422	0.881	0.825	–	0.711	1.09	0.97	0.979	–	0.884	0.863
HCC-827	0.572	0.457	0.703	–	0.406	0.185	0.192	0.175	0.195	0.193	0.428	0.415	–	0.358	1.07	0.957	0.897	–	0.85	0.422
NCI-H1395	0.492	–	0.47	0.457	0.394	0.9	1.11	0.927	0.95	0.679	0.868	0.764	0.711	0.477	1.19	–	1.52	1.07	0.685	0.637
EPLC-272H	0.781	0.42	0.952	0.436	0.135	–	0.824	1.02	0.905	0.566	0.288	0.297	0.172	0.193	0.98	0.868	0.905	0.911	0.873	–
NCI-H2087	0.633	0.562	0.542	0.278	0.162	1.01	1.08	1.05	1.12	0.974	0.272	0.227	0.164	0.167	1.17	1.09	0.985	0.839	0.221	0.261
HARA	0.848	0.68	1	0.515	0.18	0.761	0.781	0.907	0.787	0.569	0.129	0.101	0.105	0.0717	0.935	0.921	0.837	0.833	0.295	0.121
UMC-11	0.36	0.35	0.369	0.332	0.222	0.835	0.853	1.17	0.976	0.724	0.192	0.203	0.201	0.21	1.06	1.03	1.12	0.898	0.306	0.198
NCI-H2170	0.625	0.541	0.567	0.36	0.189	0.277	0.302	0.253	0.256	0.249	0.829	0.628	0.617	0.314	0.865	0.803	0.849	0.768	0.344	0.728
BEN	1.15	1.09	1.2	0.891	0.595	0.86	–	0.571	0.487	0.334	0.631	0.53	0.475	0.461	1.05	1.17	1.11	1.07	0.915	0.626
EKVX	0.838	–	0.862	0.692	0.592	0.198	0.217	0.203	0.209	0.208	0.434	0.433	0.368	0.371	1.12	0.85	0.971	0.648	0.826	0.359
